From US20060223846A1, “Aza-bridged-bicyclic amino acid derivatives as alpha4 integrin antagonists” (priority 2005, published 2006)
pIC50: −log10 of the molar value. Where two headings read alike, the source gives them in different places.

Key:
human α4β7 = biological target: T1, human α4β7 (Homo sapiens, UniProt P13612+P26010); assay: α4β7-K562 Cell Adhesion Assay (α4β7 Mediated Adhesion/VCAM-1); assay type: cell-based
T1 construct: expressed in transfected cells
T1 sequence (P13612 34-1032): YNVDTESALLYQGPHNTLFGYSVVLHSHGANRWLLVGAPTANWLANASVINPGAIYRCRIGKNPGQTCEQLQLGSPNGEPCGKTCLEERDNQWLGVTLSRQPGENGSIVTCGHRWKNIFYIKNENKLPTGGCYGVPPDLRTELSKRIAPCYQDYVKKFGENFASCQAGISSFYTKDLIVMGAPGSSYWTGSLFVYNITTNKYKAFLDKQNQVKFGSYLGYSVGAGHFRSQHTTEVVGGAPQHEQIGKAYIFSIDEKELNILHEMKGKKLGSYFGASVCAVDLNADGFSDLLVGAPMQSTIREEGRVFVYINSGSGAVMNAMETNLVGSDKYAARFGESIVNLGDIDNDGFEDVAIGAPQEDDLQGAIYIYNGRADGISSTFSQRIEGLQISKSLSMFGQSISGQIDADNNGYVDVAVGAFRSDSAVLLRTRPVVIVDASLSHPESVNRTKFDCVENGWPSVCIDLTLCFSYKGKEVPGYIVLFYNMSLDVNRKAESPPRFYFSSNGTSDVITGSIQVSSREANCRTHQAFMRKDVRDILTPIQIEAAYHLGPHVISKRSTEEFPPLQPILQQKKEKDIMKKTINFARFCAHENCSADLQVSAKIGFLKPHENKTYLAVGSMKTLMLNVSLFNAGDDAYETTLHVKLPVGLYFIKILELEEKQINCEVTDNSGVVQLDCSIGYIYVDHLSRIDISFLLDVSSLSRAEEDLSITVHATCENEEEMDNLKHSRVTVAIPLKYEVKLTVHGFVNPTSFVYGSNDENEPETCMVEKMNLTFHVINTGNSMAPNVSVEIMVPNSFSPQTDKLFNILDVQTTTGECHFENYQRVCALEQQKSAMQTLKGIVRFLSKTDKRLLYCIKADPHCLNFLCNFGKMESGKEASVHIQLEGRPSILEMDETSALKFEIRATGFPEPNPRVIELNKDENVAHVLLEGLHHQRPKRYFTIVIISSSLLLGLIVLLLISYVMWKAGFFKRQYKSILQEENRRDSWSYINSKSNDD
T1 sequence (P26010 20-798): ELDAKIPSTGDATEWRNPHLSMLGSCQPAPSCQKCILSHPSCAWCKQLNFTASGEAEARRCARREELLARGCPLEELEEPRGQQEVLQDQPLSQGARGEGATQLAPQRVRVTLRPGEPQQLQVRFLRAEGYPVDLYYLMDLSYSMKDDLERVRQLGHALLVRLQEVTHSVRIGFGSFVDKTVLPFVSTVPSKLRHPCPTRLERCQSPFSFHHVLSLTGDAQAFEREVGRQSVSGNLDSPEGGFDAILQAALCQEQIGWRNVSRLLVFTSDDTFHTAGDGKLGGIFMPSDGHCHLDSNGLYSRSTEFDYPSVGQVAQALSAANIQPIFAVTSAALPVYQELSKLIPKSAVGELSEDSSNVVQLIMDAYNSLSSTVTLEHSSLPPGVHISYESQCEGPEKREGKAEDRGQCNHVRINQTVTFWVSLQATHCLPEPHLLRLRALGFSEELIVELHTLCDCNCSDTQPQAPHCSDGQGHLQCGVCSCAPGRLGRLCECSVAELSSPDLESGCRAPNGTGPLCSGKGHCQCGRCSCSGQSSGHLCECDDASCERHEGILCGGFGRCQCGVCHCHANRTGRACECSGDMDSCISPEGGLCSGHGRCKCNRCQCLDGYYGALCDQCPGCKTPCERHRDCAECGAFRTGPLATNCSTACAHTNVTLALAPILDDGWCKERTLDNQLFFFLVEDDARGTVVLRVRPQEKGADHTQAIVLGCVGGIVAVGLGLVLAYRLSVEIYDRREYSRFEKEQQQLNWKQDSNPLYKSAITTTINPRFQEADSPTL
Experimental: (§1) α4β7-K562 Cell Adhesion Assay (α4β7 Mediated Adhesion/VCAM-1) Immulon 96 well plates (Dynex) were coated with 100 μL recombinant hVCAM-1 at 4.0 μg/mL in 0.05 M NaCO3 buffer pH 9.0 overnight at 4° C. (R&D System). Plates were washed 3 times in PBS with 1% BSA and blocked for 1 h @ room temperature in this buffer. PBS was removed and compounds to be tested (50 μL) were added at 2× concentration. A stable cell line of K562 cells expressing human α4β7, (50 μL at 2×10^6/mL) labeled with 5 μM Calcein AM (Molecular Probes) for 1 h at 37° C., were added to each well and allowed to adhere for 1 h at room temperature. Plates were washed 3× in PBS+1% BSA and cells were lysed for 15 minutes in 100 μL of 1 M Tris pH 8.0 with 1% SDS. The plate was read at 485 nm excitation and 530 nm emission.

[1] = system: circulating white blood cells (leukocytes); assay: Leukocytosis Procedure; assay type: in vivo, Balb/c mice; settings: bled 1-1.5 hours after administration
Text: Background: Leukocytosis is the increase in circulating white blood cells (leukocytes). Luekocytosis can be caused by preventing leukocyte binding to integrin counter-receptor adhesion molecules expressed on high endothelial venules. This cell adhesion occurs between immunoglobulin superfamily molecules and integrins. Relevant examples of these paired interactions include […] Adhesion Molecule-1 and αLβ2 integrin, Vascular Cell Adhesion Molecule-1 and α4β1 integrin, and Mucosal Addressin Cell Adhesion Molecule-1 and α4β7 integrin, respectively.
In this model, a compound that antagonizes these leukocyte-endothelial interactions will cause an increase in circulating leukocytes, defined as leukocytosis, as measured at 1-1.5 hours post-administration. This leukocytosis is indicative that normal lymphocyte or leukocyte emigration from the peripheral circulation was prevented. Similar emigration of cells out of the circulation into inflamed tissues is responsible for the progression and maintenance of the inflammatory state. Leukocytosis is an indication that lymphocyte and leukocyte extravasation is prevented, and is predictive of general anti-inflammatory activity.
1 week prior to being tested, 7-10 week old female Balb/c mice, n=8 per group, were bled and randomized according to leukocyte counts. One week later, the mice were administered a test compound orally or subcutaneously and then bled 1-1.5 hours after drug administration, approximately one hour after the peak blood concentration of the compound had occurred. Whole blood, 250-350 microliters, was collected from each mouse into potassium-EDTA serum collection tubes (Becton-Dickenson) and mixed to prevent clotting.
Cell counts and differential counts on the whole blood preparation were performed using an Advia 120 Hematology System (Bayer Diagnostics). Cell counts as total leukocytes and as total lympohcytes were made and compared to counts made from mice dosed with vehicle only. Data were reported as percent of vehicle control for lymphocyte counts and total leukocyte counts. Statistical analyses were performed using ANOVA with Dunnet's multiple comparison test

α4β1 [2] = biological target: T2, α4β1 (Homo sapiens, UniProt P05556+P13612); assay: Ramos Cell Adhesion Assay (α4β1 Mediated Adhesion/VCAM-1); assay type: cell-based; set-up: Ramos cells, (50 μL at 2×10^6/mL) labeled with 5 μM Calcein AM; endogenous in cells; host or cells: Ramos cells
T2 sequence (P05556 21-798, one chain of several): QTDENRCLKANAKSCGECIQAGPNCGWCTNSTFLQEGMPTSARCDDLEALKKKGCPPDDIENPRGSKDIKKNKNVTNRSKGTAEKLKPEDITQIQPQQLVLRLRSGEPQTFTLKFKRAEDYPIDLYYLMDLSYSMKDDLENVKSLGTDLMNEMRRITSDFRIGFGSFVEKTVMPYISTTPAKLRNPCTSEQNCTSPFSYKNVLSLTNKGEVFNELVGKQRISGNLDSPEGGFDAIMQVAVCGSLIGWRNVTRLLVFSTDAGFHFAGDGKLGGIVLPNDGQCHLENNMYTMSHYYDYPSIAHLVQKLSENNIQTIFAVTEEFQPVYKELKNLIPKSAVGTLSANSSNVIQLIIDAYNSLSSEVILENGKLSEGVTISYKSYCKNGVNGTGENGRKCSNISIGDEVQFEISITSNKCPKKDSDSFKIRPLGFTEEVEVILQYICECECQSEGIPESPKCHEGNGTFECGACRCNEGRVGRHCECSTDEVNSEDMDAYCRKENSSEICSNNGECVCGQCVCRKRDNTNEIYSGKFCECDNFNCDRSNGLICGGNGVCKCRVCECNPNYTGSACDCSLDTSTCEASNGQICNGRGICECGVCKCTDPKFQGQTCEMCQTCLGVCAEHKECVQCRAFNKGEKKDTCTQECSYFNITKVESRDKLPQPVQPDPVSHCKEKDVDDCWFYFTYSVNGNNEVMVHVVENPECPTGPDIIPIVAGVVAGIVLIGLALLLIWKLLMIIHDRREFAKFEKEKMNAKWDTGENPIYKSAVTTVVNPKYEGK
Experimental: as §1, with “Ramos” for “α4β7-K562”, “α4β1” for “(α4β7”, “[…]” for “96”, “Systems).” for “System).”, “Ramos cells,” for “A stable cell line of K562 cells expressing human α4β7,”

α4β1 [3] = biological target: T2, α4β1; settings: literature (Tamraz et al.); cited from earlier work
[4] = system: oxazolone-induced contact hypersensitivity; settings: 6 mg/kg, sc; mouse; cited from earlier work
[5] = system: heterotopic heart allograft; settings: hyperlipidemic rabbit; cited from earlier work
[6] = K562 cells expressing human α4β7 on recombinant hVCAM-1, read-out: α4β7 IC50
[7] = Ramos cells on recombinant hVCAM-1, read-out: α4β1 IC50

| Compound | pIC50 (human α4β7; [6]) | pIC50 (human α4β7; repeated in leukocytosis table, unit inferred, read-out: α4β7) | Lymphocyte Counts % of Vehicle Control ([1]; 3 mg/kg sc) | Total Leukocyte Counts % of Vehicle Control ([1]; 3 mg/kg sc) | Lymphocyte Counts % of Vehicle Control ([1]; 10 mg/kg sc) | Total Leukocyte Counts % of Vehicle Control ([1]; 10 mg/kg sc) | Lymphocyte Counts % of Vehicle Control ([1]; 30 mg/kg sc) | Total Leukocyte Counts % of Vehicle Control ([1]; 30 mg/kg sc) | pIC50 (α4β1 [2]; [7]) | pIC50 (α4β1 [2]; repeated in leukocytosis table, unit inferred, read-out: α4β1) | pIC50 (α4β1 [3]) | efficacy in oxazolone-induced contact hypersensitivity [4] | efficacy in heart allograft model [5] |
| --- | --- | --- | --- | --- | --- | --- | --- | --- | --- | --- | --- | --- | --- |
| O=C(Nc1ccc(CC(NC(=O)C2C3CCC(CC3)N2C(=O)CCc2ccccc2)C(=O)O)cc1)c1c(Cl)cncc1Cl (stereo not drawn) [Cpd 39] | 8.15 | 8.15 | 205.2 % of Vehicle Control | 175.1 % of Vehicle Control | 150.3 % of Vehicle Control | 134.3 % of Vehicle Control | 253.9 % of Vehicle Control | 212.2 % of Vehicle Control | 9.05 | 9.05 | – | – | – |
| O=C(Nc1ccc(CC(NC(=O)C2C3CCC(CC3)N2C(=O)CCc2cccnc2)C(=O)O)cc1)c1c(Cl)cncc1Cl (stereo not drawn) [Cpd 65] | 8.00 | – | – | – | – | – | – | – | 8.52 | – | – | – | – |
| Phenylacetyl-Leu-Asp-Phe-D-Pro-NH2 | – | – | – | – | – | – | – | – | – | – | 5.70 | efficacy similar to the α4 antibody PS/2 | effective |
